Results on 13 molecules are retold here after patent US10370356B2, “Pyridinone dicarboxamide for use as bromodomain inhibitors” (GlaxoSmithKline Intellectual Property (No. 2) Limited, priority 2015, dated 2019).

Where a name gives a salt, the structure may show the parent alone. Read-outs that look alike come from different tables or passages of the source.

Test [1] relates to BET family (BRD2, BRD3, BRD4 and BRDT) tandem bromodomain proteins. In words: Fluorescence Polarisation binding of Reference Compound X to single and double mutant tandem BET proteins. More on the design: species or system Human. How it is done: The competition of the compounds of formula (I) with Reference Compound X for binding to the BET family (BRD2, BRD3, BRD4 and BRDT) was assessed using protein truncates spanning both bromodomain 1 (BD1) and bromodomain 2 (BD2). In order to monitor differential binding to either BD1 or BD2, single residue mutations of key tyrosines to alanine were made in the acetyl lysine binding pockets. To validate this approach, a double residue mutant tandem domain protein was produced for each of the BET family members. Utilising a Fluorescence Polarisation approach, binding affinities for each of the single and double mutants for Reference Compound X were determined. […] The affinities of the single mutated bromdomain tandem proteins for Reference Compound X were equi-potent with the corresponding non-mutated BET protein. […] In the TR-FRET competition assay, Reference Compound X is used at a concentration that is equivalent to the Kd for the non-mutated bromodomain, which ensures that no binding at the mutated bromodomain is detected. […]
A general note: In fluorescence polarisation assays a small probe gives low polarisation when free and higher when bound to something large.

Test [2] concerns the target T1, BRD4 BD2 (Homo sapiens, UniProt O60885, Y97A).
T1 construct: BRD4 (1-477) (Y97A) and (Y390A); made in house; host or cells: E. coli (pET15b vector)
Description: BRD4 BD2 mutant TR-FRET competition assay. It counts as binding.

The mark [3] stands for this setting: read-out: pIC50 in the BRD4 BD2 assay (converted).
[4] abbreviates: average of N recorded values, read-out: BRD4 BD2 IC50 (average value) (converted).

Take `COc1ccc2c(c1)C(c1ccc(Cl)cc1)=N[C@@H](CC(=O)NCCCCCNC(=O)CCCCCC1(C)/C(=C/C=C/C=C/C3=[N+](CCCCS(=O)(=O)O)c4ccc(S(=O)(=O)O)cc4C3(C)C)N(CCCCS(=O)(=O)[O-])c3ccc(S(=O)(=O)O)cc31)c1nnc(C)n1-2` (stereo partly shown) [Reference Compound X]: the “reduction in Kd” value in test [1] (double mutant tandem proteins versus non mutated, wild type tandem BET proteins) is recorded as above 1000 fold. For the same molecule, the “reduction of the Kd of the interaction between the mutated bromodomain and Reference Compound X” value in test [1] (single mutations of Tyrosine to Alanine) is reported as above 1000 fold. For the molecule `CNC(=O)c1cc(C(=O)NC2CCCOC2)cn(Cc2ccccc2)c1=O` (stereo not shown) [Example 50, 1-Benzyl-N^3-methyl-2-oxo-N^5-(tetrahydro-2H-pyran-3-yl)-1,2-dihdyropyridine-3,5-dicarboxamide], the IC50 in test [2] (setting [3]) is 100 to 1000 nM. With `CNC(=O)c1cc(C(=O)NCCCC2CCNCC2)cn(Cc2cccc3[nH]ccc23)c1=O` [Example 30, 1-((1H-Indol-4-yl)methyl)-N^3-methyl-2-oxo-N^5-(3-(piperidin-4-yl)propyl)-1,2-dihydropyridine-3,5-dicarboxamide], the IC50 was 10 nM in test [2] (setting [4]) and at most 100 nM in test [2] (setting [3]). On to `CNC(=O)c1cc(C(=O)NCCC2CCNCC2)cn(Cc2cccc3[nH]ccc23)c1=O` [Example 56, 1-((1H-Indol-4-yl)methyl)-N^3-methyl-2-oxo-N5-(2-(piperidin-4-yl)ethyl)-1,2-dihydropyridine-3,5-dicarboxamide], for which the IC50 in test [2] (setting [4]) is 15.8 nM; in test [2] (setting [3]), at most 100 nM. Consider `CNC(=O)c1cc(C(=O)NCCCN2CCCCC2)cn(Cc2ccccc2)c1=O` [Example 45, 1-Benzyl-N^3-methyl-2-oxo-N^5-(3-(piperidin-1-yl)propyl)-1,2-dihydropyridine-3,5-dicarboxamide hydrochloride], for which the IC50 in test [2] (setting [3]) is 100 to 1000 nM.

Turning to `CNC(=O)c1cc(C(=O)NCCCC2CCCN(C(=O)OC(C)(C)C)C2)cn(Cc2ccccc2)c1=O` (stereo not shown) [Example 59, tert-Butyl 3-(3-(1-benzyl-5-(methylcarbamoyl)-6-oxo-1,6-dihydropyridine-3-carboxamido)propyl)piperidine-1-carboxylate], in test [2] (setting [3]), the IC50 was 100 to 1000 nM. For the molecule `CNC(=O)c1cc(C(=O)NCCC2CCCN(C(=O)OC(C)(C)C)C2)cn(Cc2ccccc2)c1=O` (stereo not shown) [Example 38, tert-Butyl 3-(2-(1-benzyl-5-(methylcarbamoyl)-6-oxo-1,6-dihydropyridine-3-carboxamido)ethyl)piperidine-1-carbxylate], the IC50 in test [2] (setting [3]) was 1000 to 100000 nM. For `CNC(=O)c1cc(C(=O)NCCC2CCCCN2)cn(Cc2ccccc2)c1=O` (stereo not shown) [Example 40, 1-Benzyl-N^3-methyl-2-oxo-N^5-(2-(piperidin-2-yl)ethyl)-1,2-dihydropyridine-3,5-dicarboxamide hydrochloride], the IC50 in test [2] (setting [3]) is 100 to 1000 nM.

Consider `CNC(=O)c1cc(C(=O)NCCCC2CCNCC2)cn(Cc2ccc(F)c(C)c2)c1=O` [Example 21, 1-(4-Fluoro-3-methylbenzyl)-N^3-methyl-2-oxo-N^5-(3-(piperidin-4-yl)propyl)-1,2-dihydropyridine-3,5-dicarboxamide], for which, in test [2] (setting [3]), the IC50 is at most 100 nM. Same read-out and setting: with `CNC(=O)c1cc(C(=O)NCCCC2CCNCC2)cn(Cc2cccc(OC)c2)c1=O` [Example 19, 1-(3-Methoxybenzyl)-N^3-methyl-2-oxo-N^5-(3-(piperidin-4-yl)propyl)-1,2-dihydropyridine-3,5-dicarboxamide] the figure was at most 100 nM; with `CCNC(=O)c1cc(C(=O)NCCC[C@]2(F)CCCNC2)cn(Cc2ccccc2)c1=O` [Example 82], at most 100 nM. `CNC(=O)c1cc(C(=O)N[C@H]2[C@@H]3COC[C@@H]32)cn(Cc2ccccc2)c1=O` [Example 69, 1-Benzyl-N^5-((1R,5S,6r)-3-oxabicyclo[3.1.0]hexan-6-yl)-N^3-methyl-2-oxo-1,2-dihydropyridine-3,5-dicarboxamide]: the IC50 in test [2] (setting [3]) is at most 100 nM. The same measure, in the same setting: with `CNC(=O)c1cc(C(=O)NCCC2CCNCC2)cn([C@H](C)c2ccccc2)c1=O` [Example 18, (R)-N^3-Methyl-2-oxo-1-(1-phenylethyl)-N^5-(2-(piperidin-4-yl)ethyl)-1,2-dihydropyridine-3,5-dicarboxamide] the figure was at most 100 nM.
